Assays:
[1] = test system: colorectal carcinoma MC38; experiment: Example 7.2.2: MC38 subcutaneous xenograft, PD-L1 inhibitor Durvalumab and 2′,3′-cGAMP; type: in vivo, mouse; details: intratumor injection, 1 mg/kg each, every other day, 3 times
Experimental: (§1) Tumor cells were cultured and passaged, cells were collected at the logarithmic phase, and formulated into a concentration of (1.0×10^7) per milliliter of cell suspension with 0.1 ml (with a cell number of 1.0×10^6) being injected into the right flank of the mice, the tumor grew to a diameter of about 5 mm within about 10 days, and the model was successfully established, they were randomly divided into 8 groups with 8 mice per group.
(§2) Trend of changes in body weight and tumor volume of mice, survival rate of mice, and inhibitory rate of anatomical tumor weight.
(§3) Drug interaction coefficient: CDI(CI)=AB/A*B. AB is the ratio of the combination group of two drugs to the control group, as calculated based on the anatomical tumor weight. A or B is the ratio of single drug group to control group.
(§4) After successfully establishing a subcutaneous xenograft tumor model of colorectal carcinoma MC38 in mice, they were randomly grouped with 6-8 mice per group and administered once every two days, a total of 3 times.

[2] = test system: colorectal carcinoma MC38; experiment: Example 7.2.1: MC38 subcutaneous xenograft, marketed PD-1 inhibitors and 2′,3′-cGAMP; type: in vivo, mouse; details: intratumor injection; PD-1 antibody 10 mg/kg, 2′,3′-cGAMP 1 mg/kg; every other day, 3 times
Experimental: as §1, §2, §3, §4

[3] = test system: colorectal carcinoma MC38; experiment: Example 7.2.3: MC38 subcutaneous xenograft, PD-L1 inhibitor Tecentriq or RB0005 and 2′,3′-cGAMP; type: in vivo, mouse; details: intratumor injection, 1 mg/kg each, every other day, 3 times
Experimental: as §1, §2, §4

[4] = test system: melanoma B16; experiment: Example 12: humanized PD-1 subcutaneous xenograft tumor model of melanoma B16; type: in vivo, mouse; details: intratumor injection, RB0004 10 mg/kg, 2′,3′-cGAMP 0.1 mg/kg; for TGI %: day 7
Experimental: as §1
After successfully establishing a humanized PD-1 subcutaneous xenograft tumor model of melanoma B16 in mice, they were randomly grouped with 6-8 mice per group and administered once every two days, a total of 3 times.

[5] = test system: lung carcinoma LLC-1; experiment: Example 13: humanized PD-1 subcutaneous xenograft tumor model of lung carcinoma LLC-1; type: in vivo, mouse; details: intratumor injection; RB0004 10 mg/kg, 2′,3′-cGAMP 0.1 mg/kg; every other day, 3 times
Experimental: as §1, §3
After successfully establishing a humanized PD-1 subcutaneous xenograft tumor model of lung carcinoma LLC-1 in mice, they were randomly grouped with 6-8 mice per group and administered once every two days, a total of 3 times.

[6] = test system: breast carcinoma 4T1; experiment: Example 11: humanized CD274 cell subcutaneous xenograft tumor model of breast carcinoma 4T1 in BALBc mice; type: in vivo; details: intratumor injection, 1 mg/kg each
Experimental: as §1, §2, §3
After successfully establishing a humanized CD274 cell subcutaneous xenograft tumor model of breast carcinoma 4T1 in BALBc mice, they were randomly grouped with 6-8 mice per group and administered once every two days, a total of 3 times.

[7] = test system: colorectal carcinoma MC38; experiment: Example 2: humanized PD-1 subcutaneous xenograft tumor model of colorectal carcinoma MC38, RB0004 and 2′,3′-cGAMP; type: in vivo, mouse; details: 2′,3′-cGAMP 3 mg/kg i.t.; RB0004 10 mg/kg i.p.; every other day
Experimental: as §1, §2
After successfully establishing a humanized PD-1 subcutaneous xenograft tumor model of colorectal carcinoma MC38 in mice, they were randomly grouped with 8 mice per group and administered once every two days.

[8] = test system: colorectal carcinoma MC38; experiment: Example 6: humanized PD-1 subcutaneous xenograft tumor model of colorectal carcinoma MC38, RB0004 and 2′,3′-cGAMP single dosage form; type: in vivo, mouse; details: intratumor injection; RB0004 10 mg/kg, 2′,3′-cGAMP 1 mg/kg; every other day, 3 times
Experimental: as §1, §2, §3
(§5) After successfully establishing a humanized PD-1 subcutaneous xenograft tumor model of colorectal carcinoma MC38 in mice, they were randomly grouped with 6-8 mice per group and administered once every two days, a total of 3 times.

[9] = test system: colorectal carcinoma MC38; experiment: Example 1: subcutaneous xenograft tumor model of colorectal carcinoma MC38 in mice, RB0005 and 2′,3′-cGAMP; type: in vivo, mouse
Experimental: C57/BL6JNifdc mouse, female, body weight of 17-22 g, aged 6-8 weeks, SPF grade, purchased from Beijing Vital River Laboratory Animal Technology Co., Ltd. [Experimental Animal Quality Certificate No.: SCXK (Beijing) 2016-0006].
as §1, §2, §3
After successfully establishing a subcutaneous xenograft tumor model of colorectal carcinoma MC38 in mice, it was randomly grouped with 6-8 mice per group. The mice were administered once every two days, with a total of three times followed by observation until 15 days.

[10] = test system: colorectal carcinoma MC38; experiment: Example 5: humanized CD274 cell subcutaneous xenograft tumor model of colorectal carcinoma MC38, routes and dosage forms; type: in vivo, mouse; details: every other day, 3 times
Experimental: as §1, §2, §3
After successfully establishing a humanized CD274 cell subcutaneous xenograft tumor model of colorectal carcinoma MC38 in mice, they were randomly grouped with 6-8 mice per group and administered once every two days, a total of 3 times.

[11] = test system: colorectal carcinoma MC38; experiment: Example 3: xenograft tumor model of colorectal carcinoma MC38, RB0005 and different doses of 2′,3′-cGAMP; type: in vivo, mouse; details: single drug i.t.: RB0005 1 mg/kg; 2′,3′-cGAMP 1, 3.16, 10 mg/kg
Experimental: as §1, §2
After successfully establishing a subcutaneous xenograft tumor model in mice, they were randomly grouped with 8 mice per group and administered once every two days.

[12] = test system: colorectal carcinoma MC38; experiment: Example 9: MC38 xenograft, 2′,3′-cGAMP administered firstly, RB0005 after 48 hours; type: in vivo, mouse; details: 2′,3′-cGAMP 1 mg/kg i.t. Day 1, 3, 5; RB0005 1 mg/kg i.p. Day 3, 5, 7
Experimental: as §1, §2, §3, §5

**Q.** With “Durvalumab: marketed PD-L1 inhibitor, anti PD-L1 antibody” as the compound, how does the “IRTW % (tumor weight inhibitory rate)” value [1] read?
**A.** The value was 27.7%.

**Q.** And the “Tumor Weight” value [1]?
**A.** The value was 2.42 g.

**Q.** Which “IRTW % (tumor weight inhibitory rate)” value [2] does the source give for “Sintilimab: marketed PD-1 monoclonal antibody [reference compound]” here?
**A.** Its value is 3.9%.

**Q.** What about the “Tumor Weight” value [2] of the same compound?
**A.** Its value is 1.47 g.

**Q.** Which “IRTW % (tumor weight inhibitory rate)” value [2] does the source give for “Toripalimab: marketed PD-1 monoclonal antibody; G9 of Example 7.2.1, called TERRE in b443 [reference compound]” here?
**A.** Its value is 49.7%.

**Q.** What about the “Tumor Weight” value [2] of the same compound?
**A.** Its value is 0.92 g.

**Q.** Which results are given for Tecentriq: marketed PD-L1 inhibitor?
**A.** IRTW % (tumor weight inhibitory rate) [3]: 62.4%; Tumor Weight [3]: 0.7 g

**Q.** What does the source list for `Nc1nc2c(ncn2[C@@H]2O[C@@H]3COP(=O)(O)O[C@H]4[C@@H](O)[C@H](n5cnc6c(N)ncnc65)O[C@@H]4COP(=O)(O)O[C@@H]2[C@@H]3O)c(=O)[nH]1` [2′,3′-cGAMP]?
**A.** Tumor Weight [2]: 0.98 g; Day 7-Tumor volume (mm^3) [4]: 578.8 mm^3; TGI % [4]: 59.0%; TGI % ([4]; listed as cGAMP): 59%; TGI % [5]: 47%; survival rate at the endpoint of the experiment [6]: 66.7%; Tumor Weight ([6]; every other day, 3 times): 0.63 g; Tumor Weight [3]: 0.9 g; Tumor Weight [1]: 1.74 g; inhibition of tumor growth [7]: can inhibit the growth of tumor; Tumor Weight [8]: 0.84 g; inhibition of tumor growth ([9]; i.t. 1 mg/kg, anatomical tumor weight vs negative control P<0.01, P<0.001): can significantly inhibit the growth of tumor; survival rates of mice at the endpoint of the experiment ([9]; intratumor injection, 1 mg/kg each drug, every other day, 3 times, death = tumor volume >2000 mm^3): 75%; Tumor Weight ([10]; intraperitoneal injection, 1 mg/kg (each)): 3.48 g; Tumor Weight ([10]; intratumor injection, 1 mg/kg each): 1.84 g; inhibition of tumor growth [11]: can inhibit the growth of tumor; Tumor Weight [12]: 1.30 g
